From patent US20220144915A1, “STABILIZATION OF PRANDIAL OR BASAL INSULIN ANALOGUES BY AN INTERNAL DISELENIDE BRIDGE” (THE TRUSTEES OF INDIANA UNIVERSITY, priority 2019, published 2022)

Columns and labels:
[1] = side-chain -SH versus -SeH; cited from earlier work
[2] = test system: MCF-7; assay: Mitogenicity: cyclin D1 / cyclin G2 mRNA by q-RT-rtPCR in MCF-7 cells; format: cell-based, human
Text: Increased expression of the gene encoding cyclin D1 and decreased expression of the gene encoding cyclin G2 are characteristic of cellular proliferation in response to signaling by mitogenic insulin analogues or IGFs.
An assay for relative mitogenicity among insulin analogues is provided by transcriptional signaling leading to reciprocal regulation of the genes encoding cyclin D1 and cyclin G2 (Glidden, M. D., et al. (2018) J. Biol. Chem. 293: 47-68).

N[C@@H](CS)C(=O)O [Cys, cysteine]
pKa [1]: approximately 8.3

N[C@@H](C[SeH])C(=O)O [Sec, selenocysteine]
pKa [1]: approximately 5.2

IGF-1: mitogenic growth factor, positive control
mitogenic signature (cyclin D1 activation, cyclin G2 repression) [2]: stimulates cyclin D1 transcription and inhibits cyclin G2 transciption to a more marked extent
